{"source": "patent US9539226B2", "about": "“Composition containing serine as an active ingredient for the prevention and treatment of fatty liver diseases, and the use thereof” (SNU R&DB FOUNDATION, priority 2010, dated 2017)", "key": {"[1]": {"system": "H4IIEC3 cell", "assay": "Ethanol induced lipid accumulation in H4IIEC3 (Nile red staining)", "assay_type": "cell-based, rodent", "conditions": "H4IIEC3 cells, ethanol plus L-serine (0.1, 1, 10 mM tested; concentration of this value not stated), 48 hrs; ethanol control 63.4 unit; P<0.05", "description": "In order to investigate the inhibitory effect of the test sample on ethanol induced lipid accumulation in H4IIEc3, following experiment was performed according to the modified procedure disclosed in literature (Yin et al., Honokiol reverses alcoholic fatty liver by inhibiting the maturation of sterol regulatory element binding protein-1c and expression of its downstream lipogenesis genes: Toxicol. Appl. Pharmacol. 236:124-130, 2009). H4IIEC 3 cell, a rodent liver cancer cell line, was procured from ATCC (American Type Culture Collection) and used in the experiment. The cell was cultured in RPMI1640 medium supplemented with 10% FBS, 100 U/ml of penicillin, […] of streptomycin at 37° C. in 5% CO2 incubator and 1 ml of the cell was distributed to 96-well (1×10^4/ml) to be stabilized until the cell had grown completely for 12-16 hours in 5% CO2 incubator. The cell was treated with ethanol or combination with ethanol with various concentration of L-serine (0.1 mM, 1 mM, and 10 mM) to incubate for 48 hrs. […] The inhibition of lipid accumulation was determined by determining the fluorescence intensity of the Nil red changed by accumulated lipid induced by alcohol 5 mins after Nile red treatment through the observation with microscopy or microplate reader at 480 nm/580 nm."}, "[2]": {"system": "acute fatty liver induced mouse model fed by alcohol", "assay": "Fatty liver formation in acute fatty liver induced mouse model fed by alcohol (triglyceride level)", "assay_type": "in vivo", "conditions": "high dose group, 200 mg/kg L-serine orally twice plus ethanol", "description": "In order to investigate the inhibitory effect on the formation of fatty liver in acute fatty liver induced mouse model fed with alcohol, following experiment was performed according to the modified procedure disclosed in literature (Song et al., S-Adenosylmethione protects against acute alcohol induced hepatotoxicity in mice, J. Nutr. Biochem. 14:591-597, 2003). Male C57/BL mouse (19-21 g) procured from Central Lab. Animal Inc. (www.labanimal.co.kr) was bred according to GLP (Good Laboratory Practice) guideline in animal breeding room providing freely accessible water and solid feed, and acclimated with environment for 7 days before use. The breeding room was controlled by automatic light system from 8:00 A.M. to 8:00 P.M, for 12 hours with adjusting the temperature to 24° C. and the mouse was freely let to access to water and feed. […] The ALT (s-GPT) enzyme activity was determined by analysis kit (YD diagnostics Inc, www.yd-diagnostics.com) according to the Reitman-Frankel method disclosed in preceding literature. The level of triglyceride in […] was determined by analysis kit analysis kit (Cat. No. TR0100, Sigma Aldrich Corp.) and the result was shown in FIG. 2."}, "[3]": {"system": "SREBP1", "assay": "SREBP1 expression by Western blot in acute fatty liver induced mouse model fed by alcohol", "assay_type": "in vivo", "conditions": "FIG. 3", "description": "(§1) In order to confirm whether the anti-steatotic effects of L-serine on alcoholic fatty liver is caused by the inhibition of SREBP1 activity or not, following experiment was performed according to the modified procedure disclosed in literature (Yin et al., Magnolia officinalis reverses alcoholic fatty liver by inhibiting the maturation of sterol regulatory element binding protein-1c, J. Pharmacol. Sci. 109:486-495, 2009). The expression of SREBP1 and its target gene product FAS were determined by the standard Western blot analysis using specific antibodies."}, "[4]": {"system": "FAS", "assay": "FAS expression by Western blot in acute fatty liver induced mouse model fed by alcohol", "assay_type": "in vivo", "conditions": "FIG. 3", "description": "as §1"}, "[5]": {"system": "chronic ethanol fed rats", "assay": "Hepatotoxicity and fatty liver in chronic ethanol fed rats (serum ALT, liver triglyceride)", "assay_type": "in vivo", "conditions": "wistar rat, ethanol diet with L-serine for 4 weeks (dose group not stated)", "description": "In order to investigate the effects of L-serine on the hepatotoxicity and fatty liver in chronic ethanol fed rats, ALT (s-GPT) enzyme activity in the serum and triglyceride level in the liver was determined according to the modified procedure disclosed in literature (Lee et al., Effect of Chlorella vulgaris on lipid metabolism in wistar rats fed high fat diet, Nut. […]. 2:204-210, 2008). Male wistar rat (170-190 g) procured from Central Lab. Animal Inc. (www.labanimal.co.kr) was bred according to GLP (Good Laboratory Practice) guideline in animal breeding room providing freely accessible water and solid feed, and acclimated with environment for 7 days before use. The breeding room was controlled by automatic light system from 8:00 A.M. to 8:00 P.M, for 12 hours with adjusting the temperature to 24° C. During the experiment, the rat was fed with liquid diet (Standard […].com) for providing appropriate calorie. […] The ALT (s-GPT) enzyme activity was determined by analysis kit (YD diagnostics Inc, www.yd-diagnostics.com) according to the Reitman-Frankel method disclosed in preceding literature. The level of triglyceride in the rat liver was determined by analysis kit analysis kit (Cat. No. TR0100, Sigma Aldrich Corp.) and the result was shown in FIG. 4."}}}
{"compound": "N[C@@H](CO)C(=O)O", "note": "[L-serine]", "values": [{"measurement": "fluorescence intensity of Nile red (lipid accumulation)", "setting": "[1]", "value": 29, "unit": "unit"}, {"measurement": "triglyceride level reduced by", "setting": "[2]; C57/BL mouse", "value": 58.5, "unit": "%"}, {"measurement": "triglyceride level", "setting": "[2]; ethanol treatment group 99.7 mg/g", "value": 52.4, "unit": "mg/g"}, {"measurement": "SREBP1 activation", "setting": "[3]", "value": "inhibited"}, {"measurement": "FAS activation", "setting": "[4]", "value": "inhibited"}, {"measurement": "hepatic triglyceride level", "setting": "[5]; liver, ethanol group 91.69 mg/g liver", "value": 53.4, "unit": "mg/g liver"}, {"measurement": "ALT enzyme activity", "setting": "[5]; serum, ethanol group 42.5 U/L", "value": 24.67, "unit": "U/L"}]}
